Results published in US10533015B1, “Opioid receptor antagonist prodrugs” (Nirsum Laboratories, Inc., priority 2019, dated 2020).
Like-named read-outs stand apart in the source and are kept apart here.

[1] = heating temp. 60 °C, obs. temp. 25 °C
[2] = heating temp. 40 °C, obs. temp. 40 °C
[3] = section 'Solubility by volumetric flask method', heating temp. 40 °C, obs. temp. 40 °C
[4] = heating temp. 60 °C, obs. temp. 40 °C

CCCCCCCCCCCCCCCC(=O)OCOc1ccc2c3c1O[C@H]1C(=O)CC[C@@]4(O)C(C2)N(CC2CC2)CC[C@]314 [Compound 49, (((4aS,7aR,12bS)-3-(cyclopropylmethyl)-4a-hydroxy-7-oxo-2,3,4,4a,5,6,7,7a-octahydro-1H-4,12-methanobenzofuro[3,2-e]isoquinolin-9-yl)oxy)methyl hexadecanoate]
Approximate Solubility (mg/mL) in Excipient: Cottonseed oil [1]: <50 mg/mL
Approximate Solubility (mg/mL) in Excipient: Sesame oil [1]: <51 mg/mL

C=C1CC[C@@]2(O)C3Cc4ccc(OC(=O)CCCCCCCCCCC/C=C\CCCCCCCC)c5c4[C@@]2(CCN3CC2CC2)[C@H]1O5 [Compound 13, (4aS,7aS,12bS)-3-(cyclopropylmethyl)-4a-hydroxy-7-methylene-2,3,4,4a,5,6,7,7a-octahydro-1H-4,12-methanobenzofuro[3,2-e]isoquinolin-9-yl (Z)-docos-13-enoate]
Approximate Solubility (mg/mL) in Excipient: Cottonseed oil [2]: >381 mg/mL
Approximate Solubility (mg/mL) in Excipient: Cottonseed oil [1]: <50 mg/mL
Approximate Solubility (mg/mL) in Excipient: Ethanol [2]: >214 mg/mL
Approximate Solubility (mg/mL) in Excipient: Sesame oil [2]: >406 mg/mL
Approximate Solubility (mg/mL) in Excipient: Sesame oil [1]: 91 to 121 mg/mL

CCCCCCCCCCCOC(=O)OCOc1ccc2c3c1O[C@H]1C(=O)CC[C@@]4(O)C(C2)N(CC2CC2)CC[C@]314 [Compound 4, (((4aS,7aR,12bS)-3-(cyclopropylmethyl)-4a-hydroxy-7-oxo-2,3,4,4a,5,6,7,7a-octahydro-1H-4,12-methanobenzofuro[3,2-e]isoquinolin-9-yl)oxy)methyl undecyl carbonate]
Solubility by volumetric flask method: Cottonseed oil [1]: >395.3 mg/mL
Solubility by volumetric flask method: Sesame oil [1]: >400.4 mg/mL
Equilibrium solubility (mg/mL) Water [3]: <0.001 mg/mL

CCCCCCCC/C=C\CCCCCCCCCCCC(=O)Oc1ccc2c3c1O[C@H]1C(=O)CC[C@@]4(O)C(C2)N(CC2CC2)CC[C@]314 [Compound 22, (4aS,7aR,12bS)-3-(cyclopropylmethyl)-4a-hydroxy-7-oxo-2,3,4,4a,5,6,7,7a-octahydro-1H-4,12-methanobenzofuro[3,2-e]isoquinolin-9-yl (Z)-docos-13-enoate]
Approximate Solubility (mg/mL) in Excipient: Cottonseed oil [1]: 67 to 80 mg/mL
Approximate Solubility (mg/mL) in Excipient: Cottonseed oil [4]: >405.9 mg/mL
Approximate Solubility (mg/mL) in Excipient: Ethanol [4]: >397.7 mg/mL
Approximate Solubility (mg/mL) in Excipient: Sesame oil [1]: 67 to 80 mg/mL
Approximate Solubility (mg/mL) in Excipient: Sesame oil [4]: >401.9 mg/mL

CCCCCCCCCCCCOC(=O)OCOc1ccc2c3c1O[C@H]1C(=O)CC[C@@]4(O)C(C2)N(CC2CC2)CC[C@]314 [Compound 29, (((4aS,7aR,12bS)-3-(cyclopropylmethyl)-4a-hydroxy-7-oxo-2,3,4,4a,5,6,7,7a-octahydro-1H-4,12-methanobenzofuro[3,2-e]isoquinolin-9-yl)oxy)methyl dodecyl carbonate]
Approximate Solubility (mg/mL) in Excipient: Cottonseed oil [1]: >410.2 mg/mL
Approximate Solubility (mg/mL) in Excipient: Sesame oil [1]: >416.5 mg/mL
Equilibrium solubility (mg/mL) Water [2]: <0.001 mg/mL

CCCCCCCC/C=C\CCCCCCCC(=O)Oc1ccc2c3c1O[C@H]1C(=O)CC[C@@]4(O)C(C2)N(CC2CC2)CC[C@]314 [Compound 41, (4aS,7aR,12bS)-3-(cyclopropylmethyl)-4a-hydroxy-7-oxo-2,3,4,4a,5,6,7,7a-octahydro-1H-4,12-methanobenzofuro[3,2-e]isoquinolin-9-yl oleate]
Approximate Solubility (mg/mL) in Excipient: Cottonseed oil [2]: >407 mg/mL
Approximate Solubility (mg/mL) in Excipient: Cottonseed oil [1]: <50 mg/mL
Approximate Solubility (mg/mL) in Excipient: Ethanol [2]: >201 mg/mL
Approximate Solubility (mg/mL) in Excipient: Sesame oil [1]: <50 mg/mL

CCCCCCCC/C=C/CCCCCCCC(=O)Oc1ccc2c3c1O[C@H]1C(=O)CC[C@@]4(O)C(C2)N(CC2CC2)CC[C@]314 [Compound 8, (4aS,7aR,12bS)-3-(cyclopropylmethyl)-4a-hydroxy-7-oxo-2,3,4,4a,5,6,7,7a-octahydro-1H-4,12-methanobenzofuro[3,2-e]isoquinolin-9-yl (E)-octadec-9-enoate]
Approximate Solubility (mg/mL) in Excipient: Cottonseed oil (heating 60 °C, obs. 25 °C, initial failed batch due to non-optimized synthesis): <50 mg/mL
Solubility by volumetric flask method: Sesame oil [1]: >399.8 mg/mL
Equilibrium solubility (mg/mL) Water [3]: <0.001 mg/mL

C=C1CC[C@@]2(O)C3Cc4ccc(OC(=O)CCCCCCC/C=C\C/C=C\C/C=C\CC)c5c4[C@@]2(CCN3CC2CC2)[C@H]1O5 [Compound 20, (4aS,7aS,12bS)-3-(cyclopropylmethyl)-4a-hydroxy-7-methylene-2,3,4,4a,5,6,7,7a-octahydro-1H-4,12-methanobenzofuro[3,2-e]isoquinolin-9-yl (9Z,12Z,15Z)-octadeca-9,12,15-trienoate]
Approximate Solubility (mg/mL) in Excipient: Cottonseed oil [2]: >414 mg/mL
Approximate Solubility (mg/mL) in Excipient: Cottonseed oil [1]: 68 to 82 mg/mL
Approximate Solubility (mg/mL) in Excipient: Ethanol [2]: 157 to 197 mg/mL
Approximate Solubility (mg/mL) in Excipient: Sesame oil [2]: >406 mg/mL
Approximate Solubility (mg/mL) in Excipient: Sesame oil [1]: 80 to 100 mg/mL
Equilibrium solubility (mg/mL) Water [2]: <0.0002 mg/mL

CCCCCCCC/C=C/CCCCCCCC(=O)OCOc1ccc2c3c1O[C@H]1C(=O)CC[C@@]4(O)C(C2)N(CC2CC2)CC[C@]314 [Compound 26, (((4aS,7aR,12bS)-3-(cyclopropylmethyl)-4a-hydroxy-7-oxo-2,3,4,4a,5,6,7,7a-octahydro-1H-4,12-methanobenzofuro[3,2-e]isoquinolin-9-yl)oxy)methyl (E)-octadec-9-enoate]
Approximate Solubility (mg/mL) in Excipient: Cottonseed oil [1]: 204.3-239^ mg/mL
Approximate Solubility (mg/mL) in Excipient: Sesame oil [1]: <354 mg/mL
Equilibrium solubility (mg/mL) Water [2]: <0.001 mg/mL

C=C1CC[C@@]2(O)C3Cc4ccc(OCOC(=O)CCCCCCCCCCCCCCC)c5c4[C@@]2(CCN3CC2CC2)[C@H]1O5 [Compound 46, (((4aS,7aS,12bS)-3-(cyclopropylmethyl)-4a-hydroxy-7-methylene-2,3,4,4a,5,6,7,7a-octahydro-1H-4,12-methanobenzofuro[3,2-e]isoquinolin-9-yl)oxy)methyl hexadecanoate]
Approximate Solubility (mg/mL) in Excipient: Cottonseed oil [1]: >395.5 mg/mL
Approximate Solubility (mg/mL) in Excipient: Sesame oil [1]: 202 to 269 mg/mL
Equilibrium solubility (mg/mL) Water [2]: <0.001 mg/mL

C=C1CC[C@@]2(O)C3Cc4ccc(OCOC(=O)CCCCCCCCCCC)c5c4[C@@]2(CCN3CC2CC2)[C@H]1O5 [Compound 44, (((4aS,7aS,12bS)-3-(cyclopropylmethyl)-4a-hydroxy-7-methylene-2,3,4,4a,5,6,7,7a-octahydro-1H-4,12-methanobenzofuro[3,2-e]isoquinolin-9-yl)oxy)methyl dodecanoate]
Approximate Solubility (mg/mL) in Excipient: Cottonseed oil [1]: >407 mg/mL
Approximate Solubility (mg/mL) in Excipient: Sesame oil [1]: 208 to 231 mg/mL
Equilibrium solubility (mg/mL) Water [2]: <0.001 mg/mL

C=C1CC[C@@]2(O)C3Cc4ccc(OC(=O)CCCCCCCCCCCCCCCCC)c5c4[C@@]2(CCN3CC2CC2)[C@H]1O5 [Compound 12, (4aS,7aS,12bS)-3-(cyclopropylmethyl)-4a-hydroxy-7-methylene-2,3,4,4a,5,6,7,7a-octahydro-1H-4,12-methanobenzofuro[3,2-e]isoquinolin-9-yl stearate]
Approximate Solubility (mg/mL) in Excipient: Cottonseed oil [2]: 100 to 120 mg/mL
Approximate Solubility (mg/mL) in Excipient: Cottonseed oil [1]: <51 mg/mL
Approximate Solubility (mg/mL) in Excipient: Cottonseed oil [4]: >398.5 mg/mL
Approximate Solubility (mg/mL) in Excipient: Ethanol [2]: 65 to 75 mg/mL
Approximate Solubility (mg/mL) in Excipient: Sesame oil [2]: 70 to 95 mg/mL
Approximate Solubility (mg/mL) in Excipient: Sesame oil [1]: <50 mg/mL
Approximate Solubility (mg/mL) in Excipient: Sesame oil [4]: >411.1 mg/mL

C=C1CC[C@@]2(O)C3Cc4ccc(OC(=O)CCCCCCC/C=C\C/C=C\CCCCC)c5c4[C@@]2(CCN3CC2CC2)[C@H]1O5 [Compound 37, (4aS,7aS,12bS)-3-(cyclopropylmethyl)-4a-hydroxy-7-methylene-2,3,4,4a,5,6,7,7a-octahydro-1H-4,12-methanobenzofuro[3,2-e]isoquinolin-9-yl (9Z,12Z)-octadeca-9,12-dienoate]
Approximate Solubility (mg/mL) in Excipient: Castor oil (Castor oil, heating temp. 40 °C, obs. temp. 40 °C): >226 mg/mL
Approximate Solubility (mg/mL) in Excipient: Cottonseed oil [1]: 68.5-82^ mg/mL
Approximate Solubility (mg/mL) in Excipient: Ethanol [2]: 75 to 90 mg/mL
Approximate Solubility (mg/mL) in Excipient: Sesame oil [2]: >408.4 mg/mL
Approximate Solubility (mg/mL) in Excipient: Sesame oil [1]: 80 to 102 mg/mL

CCCCCCCCCCCCCCCCOC(=O)OCOc1ccc2c3c1O[C@H]1C(=O)CC[C@@]4(O)C(C2)N(CC2CC2)CC[C@]314 [Compound 47, (((4aS,7aR,12bS)-3-(cyclopropylmethyl)-4a-hydroxy-7-oxo-2,3,4,4a,5,6,7,7a-octahydro-1H-4,12-methanobenzofuro[3,2-e]isoquinolin-9-yl)oxy)methyl hexadecyl carbonate]
Approximate Solubility (mg/mL) in Excipient: Cottonseed oil [1]: >405.5 mg/mL
Equilibrium solubility (mg/mL) Water [2]: <0.001 mg/mL

CCCCCCCCCCCCCCOC(=O)OCOc1ccc2c3c1O[C@H]1C(=O)CC[C@@]4(O)C(C2)N(CC2CC2)CC[C@]314 [Compound 27, (((4aS,7aR,12bS)-3-(cyclopropylmethyl)-4a-hydroxy-7-oxo-2,3,4,4a,5,6,7,7a-octahydro-1H-4,12-methanobenzofuro[3,2-e]isoquinolin-9-yl)oxy)methyl tetradecyl carbonate]
Approximate Solubility (mg/mL) in Excipient: Cottonseed oil [1]: >394.7 mg/mL
Approximate Solubility (mg/mL) in Excipient: Sesame oil [1]: >399.2 mg/mL
Equilibrium solubility (mg/mL) Water [2]: <0.001 mg/mL

C=C1CC[C@@]2(O)C3Cc4ccc(OCOC(=O)OCCCCCCCCCCC)c5c4[C@@]2(CCN3CC2CC2)[C@H]1O5 [Compound 5, (((4aS,7aS,12bS)-3-(cyclopropylmethyl)-4a-hydroxy-7-methylene-2,3,4,4a,5,6,7,7a-octahydro-1H-4,12-methanobenzofuro[3,2-e]isoquinolin-9-yl)oxy)methyl undecyl carbonate]
Solubility by volumetric flask method: Cottonseed oil [1]: >401.8 mg/mL
Solubility by volumetric flask method: Sesame oil [1]: >400.6 mg/mL
Equilibrium solubility (mg/mL) Water [3]: <0.001 mg/mL
